Source: BindingDB's records for doi:10.1016/j.bmc.2010.11.049 (Bryn Mawr College, 2011)

Test: Inhibition of HIV1 YU2 gp120 binding to CD4 expressing Cf2Th-CD4/CCR5 cells assessed as inhibition of viral infection after 48 hrs

SMILES | IC50 [µM]
COc1cc(Cl)ccc1NC(=O)C(=O)NC1CC(C)(C)NC(C)(C)C1 [N1-(4-chloro-2-methoxyphenyl)-N2-(2,2,6,6-tetramethylpiperidin-4-yl)oxalamide] | > 100
Cc1cc(Cl)ccc1NC(=O)C(=O)NC1CC(C)(C)NC(C)(C)C1 [N1-(4-chloro-2-methylphenyl)-N2-(2,2,6,6-tetramethylpiperidin-4-yl)oxalamide] | > 100
CN1C(C)(C)CC(NC(=O)C(=O)Nc2ccc(Cl)c(F)c2)CC1(C)C [N1-(4-chloro-3-fluorophenyl)-N2-(1,2,2,6,6-pentamethylpiperidin-4-yl)oxalamide] | 65.8
CC1(C)C2CCC1(C)C(NC(=O)C(=O)Nc1ccc(Cl)c(F)c1)C2 (centres undefined) [N1-(4-chloro-3-fluorophenyl)-N2-(1,7,7-trimethylbicyclo[2.2.1]heptan-2-yl)oxalamide] | > 100
CCn1ncnc1C(C)NC(=O)C(=O)Nc1ccc(Cl)c(F)c1 (centres undefined) [N1-(4-chloro-3-fluorophenyl)-N2-(1-(1-ethyl-1H-1,2,4-triazol-5-yl)ethyl)oxalamide] | > 100
CC(NC(=O)C(=O)Nc1ccc(Cl)c(F)c1)C(c1ccccc1Cl)N1CCOCC1 (centres undefined) [N1-(4-chloro-3-fluorophenyl)-N2-(1-(2-chlorophenyl)-1-morpholinopropan-2-yl)oxalamide] | > 100
CC(NC(=O)C(=O)Nc1ccc(Cl)c(F)c1)c1ccc2c(c1)NC(=O)CO2 (centres undefined) [N1-(4-chloro-3-fluorophenyl)-N2-(1-(3-oxo-3,4-dihydro-2H-benzo[b][1,4]oxazin-6-yl)ethyl)oxalamide] | > 100
CC(NC(=O)C(=O)Nc1ccc(Cl)c(F)c1)c1ccc(S(N)(=O)=O)cc1 (centres undefined) [N1-(4-chloro-3-fluorophenyl)-N2-(1-(4-sulfamoylphenyl)ethyl)oxalamide] | > 100
CC(C)N1CCC(NC(=O)C(=O)Nc2ccc(Cl)c(F)c2)CC1 [N1-(4-chloro-3-fluorophenyl)-N2-(1-isopropylpiperidin-4-yl)oxalamide] | > 100
CN1CCCC(NC(=O)C(=O)Nc2ccc(Cl)c(F)c2)C1 (centres undefined) [N1-(4-chloro-3-fluorophenyl)-N2-(1-methylpiperidin-3-yl)oxalamide] | > 100
CN1CCCC(ONC(=O)C(=O)Nc2ccc(Cl)c(F)c2)C1 (centres undefined) [N1-(4-chloro-3-fluorophenyl)-N2-(1-methylpiperidin-3-yloxy)oxalamide] | > 100
CN1CCC(NC(=O)C(=O)Nc2ccc(Cl)c(F)c2)CC1 [N1-(4-chloro-3-fluorophenyl)-N2-(1-methylpiperidin-4-yl)oxalamide] | > 100
CCCN1CCCC(NC(=O)C(=O)Nc2ccc(Cl)c(F)c2)C1 (centres undefined) [N1-(4-chloro-3-fluorophenyl)-N2-(1-propylpiperidin-3-yl)oxalamide] | 58
CCCN1CCC(NC(=O)C(=O)Nc2ccc(Cl)c(F)c2)CC1 [N1-(4-chloro-3-fluorophenyl)-N2-(1-propylpiperidin-4-yl)oxalamide] | > 100
O=C(Nc1ccc(Cl)c(F)c1)C(=O)Nc1cccc2[nH]ncc12 [N1-(4-chloro-3-fluorophenyl)-N2-(1H-indazol-4-yl)oxalamide] | > 100
CC1(C)CC(NC(=O)C(=O)Nc2ccc(Cl)c(F)c2)CC(C)(C)N1 [N1-(4-chloro-3-fluorophenyl)-N2-(2,2,6,6-tetramethylpiperidin-4-yl)oxalamide] | 74.8
CC1(C)CC(NC(=O)C(=O)Nc2ccc(Cl)c(F)c2)CC(C)(C)O1 [N1-(4-chloro-3-fluorophenyl)-N2-(2,2,6,6-tetramethyltetrahydro-2H-pyran-4-yl)oxalamide] | > 100

SMILES | IC50 [µM]
CC(C)N1CCCCC1CCNC(=O)C(=O)Nc1ccc(Cl)c(F)c1 (centres undefined) [N1-(4-chloro-3-fluorophenyl)-N2-(2-(1-isopropylpiperidin-2-yl)ethyl)oxalamide] | 27
CC1CN(CCNC(=O)C(=O)Nc2ccc(Cl)c(F)c2)CC(C)O1 (centres undefined) [N1-(4-chloro-3-fluorophenyl)-N2-(2-(2,6-dimethylmorpholino)ethyl)oxalamide] | > 100
CN1CCN(C(CNC(=O)C(=O)Nc2ccc(Cl)c(F)c2)c2ccccc2Cl)CC1 (centres undefined) [N1-(4-chloro-3-fluorophenyl)-N2-(2-(2-chlorophenyl)-2-(4-methylpiperazin-1-yl)ethyl)oxalamide] | 73.6
CC1CCCCN1C(C)CNC(=O)C(=O)Nc1ccc(Cl)c(F)c1 (centres undefined) [N1-(4-chloro-3-fluorophenyl)-N2-(2-(2-methylpiperidin-1-yl)propyl)oxalamide] | > 100
O=C(NCC(c1ccc(Cl)cc1)N1CCCC1)C(=O)Nc1ccc(Cl)c(F)c1 (centres undefined) [N1-(4-chloro-3-fluorophenyl)-N2-(2-(4-chlorophenyl)-2-(pyrrolidin-1-yl)ethyl)oxalamide] | 61.4
CN1CCN(C(CNC(=O)C(=O)Nc2ccc(Cl)c(F)c2)c2cccs2)CC1 (centres undefined) [N1-(4-chloro-3-fluorophenyl)-N2-(2-(4-methylpiperazin-1-yl)-2-(thiophen-2-yl)ethyl)oxalamide] | > 100
C[C@@H]1CCC[C@H](C)N1CCNC(=O)C(=O)Nc1ccc(Cl)c(F)c1 [N1-(4-chloro-3-fluorophenyl)-N2-(2-((2S,6R)-2,6-dimethylpiperidin-1-yl)ethyl)oxalamide] | 75.5
CCN(CC)C(CNC(=O)C(=O)Nc1ccc(Cl)c(F)c1)CC(C)C (centres undefined) [N1-(4-chloro-3-fluorophenyl)-N2-(2-(diethylamino)-4-methylpentyl)oxalamide] | > 100
CN(C)C(CNC(=O)C(=O)Nc1ccc(Cl)c(F)c1)c1ccco1 (centres undefined) [N1-(4-chloro-3-fluorophenyl)-N2-(2-(dimethylamino)-2-(furan-2-yl)ethyl)oxalamide] | > 100
CN(C)C(CNC(=O)C(=O)Nc1ccc(Cl)c(F)c1)N1CCCC1 (centres undefined) [N1-(4-chloro-3-fluorophenyl)-N2-(2-(dimethylamino)-2-(pyrrolidin-1-yl)ethyl)oxalamide] | > 100
O=C(NCC(c1ccco1)N1CCCC1)C(=O)Nc1ccc(Cl)c(F)c1 (centres undefined) [N1-(4-chloro-3-fluorophenyl)-N2-(2-(furan-2-yl)-2-(pyrrolidin-1-yl)ethyl)oxalamide] | > 100
O=C(NCc1ccccc1CN1CCOCC1)C(=O)Nc1ccc(Cl)c(F)c1 [N1-(4-chloro-3-fluorophenyl)-N2-(2-(morpholinomethyl)benzyl)oxalamide] | 20.5
CC(C)(CNC(=O)C(=O)Nc1ccc(Cl)c(F)c1)N1CCOCC1 [N1-(4-chloro-3-fluorophenyl)-N2-(2-methyl-2-morpholinopropyl)oxalamide] | > 100
CCc1n[nH]c(NC(=O)C(=O)Nc2ccc(Cl)c(F)c2)c1CC [N1-(4-chloro-3-fluorophenyl)-N2-(3,4-diethyl-1H-pyrazol-5-yl)oxalamide] | > 100
CC1(C)Cc2c(sc(NC(=O)C(=O)Nc3ccc(Cl)c(F)c3)c2C#N)C(C)(C)N1 [N1-(4-chloro-3-fluorophenyl)-N2-(3-cyano-5,5,7,7-tetramethyl-4,5,6,7-tetrahydrothieno[2,3-c]pyridin-2-yl)oxalamide] | > 100
Cn1ccnc1C(O)(CCNC(=O)C(=O)Nc1ccc(Cl)c(F)c1)C(F)(F)F (centres undefined) [N1-(4-chloro-3-fluorophenyl)-N2-(4,4,4-trifluoro-3-hydroxy-3-(1-methyl-1H-imidazol-2-yl)butyl)oxalamide] | > 100
O=C(Nc1ccc(Cl)c(F)c1)C(=O)NC1CCc2[nH]ncc2C1 (centres undefined) [N1-(4-chloro-3-fluorophenyl)-N2-(4,5,6,7-tetrahydro-1H-indazol-5-yl)oxalamide] | > 100
